Experimental data: PubChem BioAssay AID504330 (The Scripps Research Institute Molecular Screening Center, 2011)
Activity calls are given as the source filed them.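 Rule for the calls: active = EC50 at or below 10 µM; inactive = the rest.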

Biological target: Caspase-7 (Homo sapiens) (UniProt P55210)
Assay: procaspase-7 activators, dose response, dual procaspase-3/-7 activator project, biochemical, absorbance, human (AID 504330)
Settings: recombinant procaspase-7 D3A, Ac-DEVD-pNA absorbance 405 nm

Chain of Caspase-7 (Homo sapiens) (P55210 whole entry D23A/D198A/D206A): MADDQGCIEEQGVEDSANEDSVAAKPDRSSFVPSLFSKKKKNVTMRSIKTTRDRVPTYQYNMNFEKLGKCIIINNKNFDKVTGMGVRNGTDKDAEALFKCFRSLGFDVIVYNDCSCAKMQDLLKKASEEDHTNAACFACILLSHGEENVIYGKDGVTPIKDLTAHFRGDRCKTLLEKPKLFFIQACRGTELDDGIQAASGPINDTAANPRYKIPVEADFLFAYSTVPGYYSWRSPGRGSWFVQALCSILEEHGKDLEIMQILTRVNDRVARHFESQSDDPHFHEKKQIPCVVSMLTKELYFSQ

## CCOc1ccc(N=CC2=C(O)CC(c3ccco3)CC2=O)cc1 (stereo unspecified)
  EC50: > 85.3 µM (inactive)
